Measured values from US20140080706A1, “METHOD OF PREPARING AN AQUEOUS TANK MIX COMPRISING A BASE” (BASF SE, priority 2011, published 2014).

Columns and labels:
[1] = typical value; cited from earlier work
[2] = Volatility: loss of dicamba from tank mix on petri dish; type: physicochemical; settings: 70° C., 24 h
Description: The volatility was determined by analyzing the loss of material by HLPL at 70° C. after 24 h at atmospheric pressure. A sample of the aqueous tank mix (300 l/ha) was placed on the petri dish with a defined area (corresponding to a desired field application rate, such as 500 g/ha pesticide).
The application rate was 500 g/ha dicamba (free acid), 1000 g/ha potassium glyphosate, 300 g/ha Genamin® T050 (“Ad2”), 300 g/ha Preference® (“Ad3”) and optionally 250, 500 or 1000 g/ha K2CO3. Deionised water (hardness <1° dH) was used to prepare the samples. Dicamba BAPMA refers to the bis(3-aminopropyl)methylamine salt of dicamba.

pH of tank mix = type: physicochemical
Description: According to the invention, an aqueous tank mix which has a tank mix acidity of at least pH 5.0 was prepared. Preferably, the tank mix acidity corresponds to a pH of at least 6.0, better of at least 7.0, more preferably of at least 7.5, especially preferred of at least 8.0 and in particular of at least 8.5. The tank mix acidity may correspond to a pH of up to 13.0, preferably of up to 11.0 and in particular of up to 9.0. The tank mix acidity is usually determined as pH value at 20° C. without dilution of the tank mix.

[3] = tested on: Soya (glycine max) Variant Deltapine; assay: Biological evaluation of low phytotoxicity on glyphosate-resistant soya; type: in vivo; settings: glyphosate tank mixes
Description: For the greenhouse tests, maize (cultivar Amadeo) and Chenopodium album was sown or potted in loamy sandy soil to a depth of 1-2 cm. When the plants had reached a growth height of 10 to 25 cm (around 10 to 21 days after sowing), the spray mixtures were applied to the plants in a spraying cabin.
The temperatures in the experimental period, which lasted for 3 to 4 weeks, were between 18-35° C. During this time, the experimental plants received optimum watering, with nutrients being supplied via the water used for watering.
The herbicidal activity was evaluated by awarding scores to the treated plants in comparison to the untreated control plants (Table 1 and 2). The evaluation scale ranges from 0% to 100% activity. 100% activity means the complete death at least of those parts of the plant that are above ground. Conversely, 0% activity means that there were no differences between treated and untreated plants.
The biological evaluation was made as described in Example 6. The tank mixes were applied at a application rate of 375 l/ha (125 or 250 g of glyphosate free acid/ha and 300 g of adjuvant/ha). The adjuvant Ad1 is an aqeuous solution of 200 g/l Genamin® T150 (a tallow fatty amine ethoxylate with 15 EO). The adjuvant Ad2 is Genamin® T050 (a tallow fatty amine ethoxylate with 5 EO).
Soya (glycine max) Variant Deltapine was genetically engineered to resist glyphosate.

O=C(O)CNCP(=O)(O)O [glyphosate]
pKa for the amine [1]: 11.0 | pKa for the carboxylic acid [1]: 2.3 | pKa for the first phosphonic acid [1]: 0.8 | pKa for the second phosphonic acid [1]: 6.0

COc1c(Cl)ccc(Cl)c1C(=O)O [Dicamba free acid, dicamba]
Loss of dicamba, Loss (wt %) ([2]; atmospheric pressure, application rate 500 g/ha dicamba): 80 wt % | pH of tank mix (pH of tank mix; Table 5 tank mixes, 500 g/ha dicamba, 300 l/ha): 3.0

O=C([O-])[O-].[K+].[K+] [Example K2CO3, K2CO3]
phytotoxity effect on plants of addition of K2CO3 [3]: no phytotoxity effect

CN(CCCN)CCCN.COc1c(Cl)ccc(Cl)c1C(=O)O [Dicamba BAPMA, bis(3-aminopropyl)methylamine salt of dicamba]
Loss of dicamba, Loss (wt %) ([2]; 500 g/ha dicamba, 1000 g/ha potassium glyphosate, 300 g/ha Ad2, 300 g/ha Ad3, deionised water): <1 wt % | pH of tank mix (pH of tank mix; Table 6 tank mixes, deionised water (hardness <1° dH)): 6.3
